In brackets after ≈: the same amount, converted by molar mass. Counter-ions that a name gives are not always drawn.
How the values were obtained:
physchem = settings: water, thermodynamic from solid
[1] = stated in Example 1 without method; cited from earlier work
[2] = Solubility in water by UV method; settings: thermodynamic from solid

| SMILES | solubility (physchem) | further results |
| --- | --- | --- |
| O=C1c2c(O)ccc(O)c2C(=O)c2c(NCCNCCO)ccc(NCCNCCO)c21 [mitoxantrone in amine form, mitoxantrone] | 30 µg/mL (≈ 67.5 µM) |  |
| COc1cccc2c1C(=O)c1c(O)c3c(c(O)c1C2=O)C[C@@](O)(C(=O)CO)C[C@@H]3O[C@H]1C[C@H](N)[C@H](O)[C@H](C)O1 [doxorubicin hydrochloride] |  | soluble in water in an amount of [1]: more than 25 mg/ml |
| CC[C@@]1(O)C(=O)OCc2c1cc1n(c2=O)Cc2cc3c(CN(C)C)c(O)ccc3nc2-1 [topotecan in amine form, topotecan] | 90 µg/mL (≈ 214 µM) |  |
| COc1cccc2c1C(=O)c1c(O)c3c(c(O)c1C2=O)C[C@@](O)(C(=O)CO)C[C@@H]3O[C@H]1C[C@H](N)[C@H](O)[C@H](C)O1 [doxorubicin in amine form, doxorubicin] |  | solubility [2]: 15 µg/mL (≈ 27.6 µM) |

Source: patent US8765173B2, “Drug delivery system for administration of a water soluble, cationic and amphiphilic pharmaceutically active substance” (Ardenia Investments, Ltd., priority 2007, dated 2014)
